Experimental data as given in patent publication US5922718A, “Triazolones as apolipoprotein-B synthesis inhibitors” (Janssen Pharmaceutica, N.V., priority 1995, dated 1999).
pIC50: −log10 of the molar value.

system: apolipoprotein B; assay: Apolipoprotein B (apo B) Inhibition Test; type: cell-based, human; conditions: HepG2-cells, overnight at 37° C., radioactively labelled leucine, double immunoprecipitation; read-out: IC50 (concentration of the drug needed to reduce apoB secretion to 50% of the control)
Experimental: Cultured human liver cells (HepG2-cells), which synthesize and secrete low-density lipoproteins, were incubated overnight at 37° C. in a liquid medium containing radioactively labelled leucine. Thus radioactively labelled leucine was incorporated into the apolipoprotein B. The liquid medium was decanted and the apolipoprotein B was isolated by means of a double immunoprecipitation, i.e. first an apolipoprotein B-specific antibody (antibody1) was added to the liquid medium and subsequently a second antibody (antibody2) was added which binds specifically to the apoB-antibody1 -complex. The thus formed apoB-antibody1 -antibody2 complex precipitated and was isolated by centrifuge. Quantification of the amount of apolipoprotein B synthesized during the night resulted from measuring the radioactivity of the isolated complex. To measure the inhibiting activity of the test compound, that test compound was added to the liquid medium at different concentrations and the concentration of apolipoprotein B synthesized in the presence of a test compound (concentration apoB(after)) was compared to the concentration of apolipoprotein B which was synthesized in the absence of the test compound (concentration apoB(control)). For each experiment the inhibition of apolipoprotein-B formation was expressed as
% inhibition=100×(1-concentration of apoB(after)/concentration
When more experiments were carried out for the same concentration, the median value of the inhibition calculated for these experiments was calculated. IC50 -values (concentration of the drug needed to reduce apoB secretion to 50% of the control) were also computed.

pIC50 | Structure (SMILES)
6.52 | CCC(C)n1cnn(-c2ccc(N3CCN(c4ccc(OCC5COC(CCn6cncn6)(c6ccc(F)cc6F)O5)cc4)CC3)cc2)c1=O (stereo not shown) [Compound 26]

same assay, conditions: Homo sapiens, HepG2-cells, overnight at 37° C., radioactively labelled leucine, double immunoprecipitation; read-out: IC50 (concentration of the drug needed to reduce apoB secretion to 50% of the control)

Structure (SMILES) | pIC50
CCC(C)n1cnn(-c2ccc(N3CCN(c4ccc(OCC5COC(CCn6cncn6)(c6ccc(Cl)cc6)O5)cc4)CC3)cc2)c1=O (stereo not shown) [Compound 27] | 6.57
CCC(C)n1cnn(-c2ccc(N3CCN(c4ccc(OC[C@H]5CO[C@](Cn6cncn6)(c6ccc(F)cc6)O5)cc4)CC3)cc2)c1=O (stereo partly shown) [Compound 20] | 6.07
CCC(C)n1cnn(-c2ccc(N3CCN(c4ccc(OCC5COC(CCn6cncn6)(c6ccc(F)cc6F)O5)cc4)CC3)cc2)c1=O (stereo not shown) [Compound 25] | 6.64
CC(C)n1cnn(-c2ccc(N3CCN(c4ccc(OC[C@H]5CO[C@](Cn6ccnc6)(c6ccc(Cl)cc6Cl)O5)cc4)CC3)cc2)c1=O (relative stereo) [Compound 7] | 6.20
CC(C)n1cnn(-c2ccc(N3CCN(c4ccc(OC[C@H]5CO[C@](Cn6cncn6)(c6ccc(Cl)cc6Cl)O5)cc4)CC3)cc2)c1=O (relative stereo) [Compound 17] | 6.14
CCCn1c(C)nn(-c2ccc(N3CCN(c4ccc(OC[C@H]5CO[C@](Cn6ccnc6)(c6ccc(Cl)cc6Cl)O5)cc4)CC3)cc2)c1=O (relative stereo) [Compound 4] | 6.00
CC(C)n1cnn(-c2ccc(N3CCN(c4ccc(OC[C@H]5CO[C@](Cn6cncn6)(c6ccc(F)cc6F)O5)cc4)CC3)cc2)c1=O (relative stereo) [Compound 23] | 6.47
CCC(C)n1cnn(-c2ccc(N3CCN(c4ccc(OC[C@H]5CO[C@](Cn6cncn6)(c6ccc(F)cc6F)O5)cc4)CC3)cc2)c1=O (stereo partly drawn) [Compound 19, cis-2-[4-[4-[4-[[2-(2,4-difluorophenyl)-2-(1H-1,2,4-triazol-1yl-methyl)-1,3-dioxolan-4-yl]methoxy]phenyl]-1-piperazinyl]phenyl]-2,4-dihydro-4-(1-methylpropyl)-3H-1,2,4-triazol-3-one] | 6.77

The next lines start with the values.

pIC50 | Structure (SMILES)
6.04 | CC(C)n1cnn(-c2ccc(N3CCN(c4ccc(OC[C@H]5CO[C@](Cn6cncn6)(c6cccc7ccccc67)O5)cc4)CC3)cc2)c1=O (relative stereo) [Compound 24]
6.25 | CC(C)n1cnn(-c2ccc(N3CCN(c4ccc(OC[C@H]5CO[C@](Cn6ccnc6)(c6cccc7ccccc67)O5)cc4)CC3)cc2)c1=O (relative stereo) [Compound 9]
6.41 | CCC(C)n1cnn(-c2ccc(N3CCN(c4ccc(OC[C@H]5CO[C@](Cn6cncn6)(c6ccc(Cl)cc6Cl)O5)cc4)CC3)cc2)c1=O (stereo partly shown) [Compound 22]
6.54 | CC(C)n1cnn(-c2ccc(N3CCN(c4ccc(OC[C@H]5CO[C@](Cn6cccn6)(c6ccc(F)cc6F)O5)cc4)CC3)cc2)c1=O (relative stereo) [Compound 10]
